# Experimental data reported in ChEMBL document CHEMBL4007427, “Inhibition of the Aldehyde Dehydrogenase 1/2 Family by Psoralen and Coumarin Derivatives” (J Med Chem, 2017).
# pIC50, pKi: −log10 of the molar value.
# Columns and labels:
# [1] = molecular target: T1, Aldehyde dehydrogenase, dimeric NADP-preferring (Homo sapiens, UniProt P30838); experiment: (§1) Inhibition of full length recombinant human ALDH3A1 expressed in Escherichia coli BL21(DE3) assessed as reduction in dehydrogenase activity by measuring NAD(P)H level preincubated for 2 mins followed by addition of benzaldehyde as substrate in presence of NADP+ by spectrophotometric method
# T1 sequence (P30838 whole entry): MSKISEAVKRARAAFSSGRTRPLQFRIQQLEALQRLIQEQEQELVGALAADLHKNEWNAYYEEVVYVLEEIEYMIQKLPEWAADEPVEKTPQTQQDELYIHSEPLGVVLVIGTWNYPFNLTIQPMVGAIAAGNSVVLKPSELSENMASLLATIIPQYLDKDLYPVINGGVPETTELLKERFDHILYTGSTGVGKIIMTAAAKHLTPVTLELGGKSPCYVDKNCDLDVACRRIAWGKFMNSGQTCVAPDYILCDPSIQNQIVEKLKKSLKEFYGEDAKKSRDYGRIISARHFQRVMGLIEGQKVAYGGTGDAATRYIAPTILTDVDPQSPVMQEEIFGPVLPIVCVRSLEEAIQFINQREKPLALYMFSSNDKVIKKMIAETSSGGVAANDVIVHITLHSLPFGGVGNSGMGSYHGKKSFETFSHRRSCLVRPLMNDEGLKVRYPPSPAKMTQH
# [2] = molecular target: T2, Aldehyde dehydrogenase 1A1 (Homo sapiens) (UniProt P00352); experiment: (§2) Inhibition of full length recombinant human ALDH1A1 expressed in Escherichia coli BL21(DE3) assessed as remaining dehydrogenase activity by measuring NAD(P)H level at 10 uM preincubated for 2 mins followed by addition of propionaldehyde as substrate in presence of NAD+ by spectrophotometric method
# T2 sequence (whole entry): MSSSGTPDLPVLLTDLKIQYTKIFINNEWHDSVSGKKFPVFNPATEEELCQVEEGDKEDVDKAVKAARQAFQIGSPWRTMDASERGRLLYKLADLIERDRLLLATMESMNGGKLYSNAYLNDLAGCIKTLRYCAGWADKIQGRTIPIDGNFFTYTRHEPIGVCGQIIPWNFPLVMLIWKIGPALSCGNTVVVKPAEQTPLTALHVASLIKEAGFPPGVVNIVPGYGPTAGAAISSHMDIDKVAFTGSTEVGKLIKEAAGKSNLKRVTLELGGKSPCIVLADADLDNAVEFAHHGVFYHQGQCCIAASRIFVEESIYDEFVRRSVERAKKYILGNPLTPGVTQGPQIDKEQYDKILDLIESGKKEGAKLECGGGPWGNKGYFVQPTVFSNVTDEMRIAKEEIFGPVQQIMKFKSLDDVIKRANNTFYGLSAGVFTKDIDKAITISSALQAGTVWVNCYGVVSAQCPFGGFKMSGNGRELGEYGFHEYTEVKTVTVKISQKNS
# [3] = molecular target: T3, Aldehyde dehydrogenase, mitochondrial (Homo sapiens) (UniProt P05091); experiment: Inhibition of full length recombinant human ALDH2 expressed in Escherichia coli assessed as remaining dehydrogenase activity by measuring NAD(P)H level at 10 uM preincubated for 2 mins followed by addition of propionaldehyde as substrate in presence of NAD+ by spectrophotometric method
# T3 sequence (whole entry): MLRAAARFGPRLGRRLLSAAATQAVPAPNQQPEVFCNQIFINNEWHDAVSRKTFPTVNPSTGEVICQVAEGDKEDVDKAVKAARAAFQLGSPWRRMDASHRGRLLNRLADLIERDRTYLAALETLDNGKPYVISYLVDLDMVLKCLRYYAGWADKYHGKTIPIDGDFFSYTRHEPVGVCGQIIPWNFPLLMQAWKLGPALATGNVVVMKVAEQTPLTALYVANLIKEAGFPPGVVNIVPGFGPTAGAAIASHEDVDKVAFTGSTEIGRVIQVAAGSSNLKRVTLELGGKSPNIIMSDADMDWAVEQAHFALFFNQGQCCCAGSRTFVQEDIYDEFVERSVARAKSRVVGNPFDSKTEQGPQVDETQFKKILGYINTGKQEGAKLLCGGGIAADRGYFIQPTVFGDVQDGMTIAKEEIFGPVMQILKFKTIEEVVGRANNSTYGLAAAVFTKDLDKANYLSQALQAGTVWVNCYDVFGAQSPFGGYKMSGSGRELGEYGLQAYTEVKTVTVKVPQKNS
# [4] = molecular target: T4, Aldehyde dehydrogenase, dimeric NADP-preferring (Homo sapiens) (UniProt P30838); experiment: Inhibition of full length recombinant human ALDH3A1 expressed in Escherichia coli BL21(DE3) assessed as remaining dehydrogenase activity by measuring NAD(P)H level at 10 uM preincubated for 2 mins followed by addition of propionaldehyde as substrate in presence of NAD+ by spectrophotometric method
# T4 sequence (whole entry): T1 sequence (P30838 whole entry)
# [5] = Lipophilicity, log P of the compound; assay type: physicochemical; details: octanol/water
# [6] = molecular target: T5, Aldehyde dehydrogenase X, mitochondrial (Homo sapiens, UniProt P30837)
# T5 sequence (P30837 whole entry): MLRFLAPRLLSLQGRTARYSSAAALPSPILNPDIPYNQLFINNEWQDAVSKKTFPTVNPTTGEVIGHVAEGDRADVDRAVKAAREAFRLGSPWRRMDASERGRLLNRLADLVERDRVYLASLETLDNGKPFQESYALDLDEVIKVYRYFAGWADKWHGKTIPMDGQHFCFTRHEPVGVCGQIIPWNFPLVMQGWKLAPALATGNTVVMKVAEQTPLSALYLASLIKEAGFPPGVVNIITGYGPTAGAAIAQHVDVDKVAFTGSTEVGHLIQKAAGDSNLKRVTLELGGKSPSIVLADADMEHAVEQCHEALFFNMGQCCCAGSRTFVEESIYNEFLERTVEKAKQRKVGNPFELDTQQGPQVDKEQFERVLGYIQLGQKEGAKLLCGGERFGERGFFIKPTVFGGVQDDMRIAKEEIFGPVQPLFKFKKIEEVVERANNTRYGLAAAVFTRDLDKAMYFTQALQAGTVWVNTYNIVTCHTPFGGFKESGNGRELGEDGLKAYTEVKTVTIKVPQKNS
# Description: (§3) Inhibition of full length recombinant human ALDH1B1 expressed in Escherichia coli TunerDE3 assessed as reduction in dehydrogenase activity by measuring NAD(P)H level preincubated for 2 mins followed by addition of propionaldehyde as substrate in presence of NAD+ by spectrophotometric method
# [7] = molecular target: T6, Aldehyde dehydrogenase 1A1 (Homo sapiens, UniProt P00352)
# T6 sequence (P00352 whole entry): T2 sequence (whole entry)
# Description: (§4) Inhibition of full length recombinant human ALDH1A1 expressed in Escherichia coli BL21(DE3) assessed as reduction in dehydrogenase activity by measuring NAD(P)H level preincubated for 2 mins followed by addition of propionaldehyde as substrate in presence of NAD+ by spectrophotometric method
# Retinal dehydrogenase 2 = molecular target: T7, Retinal dehydrogenase 2 (Homo sapiens, UniProt O94788)
# T7 sequence (O94788 whole entry): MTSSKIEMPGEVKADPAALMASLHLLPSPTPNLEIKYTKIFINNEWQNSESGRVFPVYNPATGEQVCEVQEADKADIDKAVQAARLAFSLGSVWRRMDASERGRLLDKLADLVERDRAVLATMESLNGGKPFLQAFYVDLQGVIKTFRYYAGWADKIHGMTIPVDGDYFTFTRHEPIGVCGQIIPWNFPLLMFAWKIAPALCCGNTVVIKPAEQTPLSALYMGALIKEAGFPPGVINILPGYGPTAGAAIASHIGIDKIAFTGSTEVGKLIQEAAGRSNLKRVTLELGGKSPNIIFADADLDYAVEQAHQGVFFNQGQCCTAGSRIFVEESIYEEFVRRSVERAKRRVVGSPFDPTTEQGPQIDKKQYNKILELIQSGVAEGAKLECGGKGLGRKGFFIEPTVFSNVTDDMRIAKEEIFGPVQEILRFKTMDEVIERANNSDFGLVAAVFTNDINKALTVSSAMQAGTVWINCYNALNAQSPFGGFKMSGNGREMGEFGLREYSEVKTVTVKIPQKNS
# Description: Inhibition of full length recombinant human ALDH1A2 expressed in Escherichia coli BL21(DE3) assessed as reduction in dehydrogenase activity by measuring NAD(P)H level preincubated for 2 mins followed by addition of propionaldehyde as substrate in presence of NAD+ by spectrophotometric method
# [8] = molecular target: T8, Retinaldehyde dehydrogenase 3 (Homo sapiens, UniProt P47895)
# T8 sequence (P47895 whole entry): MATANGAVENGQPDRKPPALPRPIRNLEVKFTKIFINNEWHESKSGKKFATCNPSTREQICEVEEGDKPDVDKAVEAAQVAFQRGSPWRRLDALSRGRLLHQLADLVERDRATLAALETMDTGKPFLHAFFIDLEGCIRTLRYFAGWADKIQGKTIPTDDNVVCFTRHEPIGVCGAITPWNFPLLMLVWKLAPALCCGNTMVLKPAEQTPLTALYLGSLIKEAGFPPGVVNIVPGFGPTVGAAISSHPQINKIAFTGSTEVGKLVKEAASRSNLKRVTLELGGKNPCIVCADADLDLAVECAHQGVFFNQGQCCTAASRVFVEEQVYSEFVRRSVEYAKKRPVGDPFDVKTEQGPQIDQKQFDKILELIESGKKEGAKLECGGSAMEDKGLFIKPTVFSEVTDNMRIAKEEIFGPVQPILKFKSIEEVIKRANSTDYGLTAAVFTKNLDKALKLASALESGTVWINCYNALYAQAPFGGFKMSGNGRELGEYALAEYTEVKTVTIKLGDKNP
# Description: (§5) Inhibition of full length recombinant human ALDH1A3 expressed in Escherichia coli BL21(DE3) assessed as reduction in dehydrogenase activity by measuring NAD(P)H level preincubated for 2 mins followed by addition of propionaldehyde as substrate in presence of NAD+ by spectrophotometric method
# [9] = molecular target: T9, Aldehyde dehydrogenase, mitochondrial (Homo sapiens, UniProt P05091)
# T9 sequence (P05091 whole entry): T3 sequence (whole entry)
# Description: (§6) Inhibition of full length recombinant human ALDH2 expressed in Escherichia coli assessed as reduction in dehydrogenase activity by measuring NAD(P)H level preincubated for 2 mins followed by addition of propionaldehyde as substrate in presence of NAD+ by spectrophotometric method
# [10] = molecular target: T9, Aldehyde dehydrogenase, mitochondrial; experiment: Mixed-type non-competitive inhibition of full length recombinant human ALDH2 expressed in Escherichia coli assessed as reduction in dehydrogenase activity using propionaldehyde as substrate in presence of varying levels NAD+ by Lineweaver-Burk plot analysis
# [11] = molecular target: T6, Aldehyde dehydrogenase 1A1; remark: listed apart in the source
# Description: Non-competitive inhibition of full length recombinant human ALDH1A1 expressed in Escherichia coli BL21(DE3) assessed as reduction in dehydrogenase activity by measuring NAD(P)H level using varying levels propionaldehyde in presence of NAD+ by Lineweaver-Burk plot analysis
# [12] = molecular target: T2, Aldehyde dehydrogenase 1A1 (Homo sapiens); experiment: as §2, with “reduction in” for “remaining”, “level” for “level at 10 uM”, “method relative to control” for “method”
# [13] = molecular target: T9, Aldehyde dehydrogenase, mitochondrial; remark: listed apart in the source
# Description: as §6
# [14] = molecular target: T8, Retinaldehyde dehydrogenase 3; remark: listed apart in the source
# Description: as §5
# [15] = molecular target: T10, Cytosolic 10-formyltetrahydrofolate dehydrogenase (Rattus norvegicus, UniProt P28037); experiment: Inhibition of rat ALDH1L1 assessed as reduction in dehydrogenase activity by measuring NAD(P)H level preincubated for 2 mins followed by addition of propionaldehyde as substrate in presence of NAD+ by spectrophotometric method
# T10 sequence (P28037 whole entry): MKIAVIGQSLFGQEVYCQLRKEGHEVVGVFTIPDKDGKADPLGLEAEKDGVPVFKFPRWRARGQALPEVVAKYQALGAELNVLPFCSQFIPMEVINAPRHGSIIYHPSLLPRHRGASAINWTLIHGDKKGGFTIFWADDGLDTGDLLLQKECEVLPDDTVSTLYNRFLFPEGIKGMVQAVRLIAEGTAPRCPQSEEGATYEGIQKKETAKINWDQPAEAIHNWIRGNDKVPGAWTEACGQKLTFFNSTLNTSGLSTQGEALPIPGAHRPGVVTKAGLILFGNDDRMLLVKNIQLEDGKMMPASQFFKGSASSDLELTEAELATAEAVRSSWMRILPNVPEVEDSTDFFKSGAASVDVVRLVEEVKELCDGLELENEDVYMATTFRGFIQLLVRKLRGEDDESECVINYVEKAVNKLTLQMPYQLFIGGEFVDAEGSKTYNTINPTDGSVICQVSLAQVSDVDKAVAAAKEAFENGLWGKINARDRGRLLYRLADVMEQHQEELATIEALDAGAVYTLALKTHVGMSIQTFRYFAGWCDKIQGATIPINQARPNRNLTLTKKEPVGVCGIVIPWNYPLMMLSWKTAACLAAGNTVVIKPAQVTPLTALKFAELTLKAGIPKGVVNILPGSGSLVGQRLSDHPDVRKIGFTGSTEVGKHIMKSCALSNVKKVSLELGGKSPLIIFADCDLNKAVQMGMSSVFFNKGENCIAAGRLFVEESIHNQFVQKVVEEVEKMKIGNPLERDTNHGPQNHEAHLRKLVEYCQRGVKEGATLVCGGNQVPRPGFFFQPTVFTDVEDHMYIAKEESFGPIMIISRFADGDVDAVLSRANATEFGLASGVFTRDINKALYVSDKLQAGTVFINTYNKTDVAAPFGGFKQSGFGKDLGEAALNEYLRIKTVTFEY
# [16] = molecular target: T6, Aldehyde dehydrogenase 1A1; remark: listed apart in the source
# [17] = molecular target: T5, Aldehyde dehydrogenase X, mitochondrial; remark: listed apart in the source
# Description: as §3
# [18] = molecular target: T4, Aldehyde dehydrogenase, dimeric NADP-preferring (Homo sapiens); experiment: as §1, with “method relative to control” for “method”
# [19] = molecular target: T6, Aldehyde dehydrogenase 1A1; remark: listed apart in the source
# Description: as §4
SMILES,IC50 [1],Activity [2] [%],Activity [3] [%],Activity [4] [%],logP [5],pIC50 [6],pIC50 [7],pIC50 (Retinal dehydrogenase 2),pIC50 [8],IC50 [9],pKi [11],pIC50 [13],IC50 [14],further results
Cc1c(Cc2ccccc2)c(=O)oc2cc(OS(C)(=O)=O)ccc12,Not Active,24.6,99.7,86.9,3.44,4.89,5.55,4.96,5.00,Not Active,–,–,–,–
Cc1cc(=O)oc2cc(OCC#N)ccc12,–,35.7,41.3,20.4,1.22,–,–,–,–,–,5.16,–,–,pKi [10]: 5.25
Cc1oc2cc3oc(=O)c4c(c3cc2c1C)CCCC4,Not Active,56.3,16.3,94.1,4.27,7.02,6.89,7.19,–,–,–,7.17,Not Active,Imax [12]: 50 to 60%
O=c1c(-c2ccc(O)cc2)coc2cc(O[C@@H]3O[C@H](CO)[C@@H](O)[C@H](O)[C@H]3O)ccc12 [DAIDZIN],Not Active,–,–,–,–,5.29,< 3.70,5.35,< 3.70,–,–,–,–,IC50 [15]: Not Active
CCN(CC)c1ccc2c(C)cc(=O)oc2c1,Not Active,14.3,71.7,109,3.63,–,6.12,< 5.00,–,Not Active,5.92,–,Not Active,pKi [16]: 6.06; IC50 [17]: Not Active
Cc1cc(=O)oc2cc3c(cc12)CCC(=O)O3,–,65.2,25.5,53.6,2.11,–,–,–,–,–,–,6.33,–,pIC50 ([1]; read-out: IC50): 5.27; Imax [18]: 50 to 60%; IC50 [19]: Not Active
